Experiments:
Assay type in all cases: functional, cell-based
[1] = Cytotoxicity against human SGC7901 cells assessed as growth inhibition after 48 hrs by MTT assay; conditions: SGC-7901, 48 h
[2] = system: KB; test: Cytotoxicity against human KB cells assessed as growth inhibition after 48 hrs by MTT assay
[3] = Cytotoxicity against human HT1080 cells assessed as growth inhibition after 48 hrs by MTT assay; conditions: HT-1080, 48 h

Structure (SMILES) | IC50 [1] [µM] | IC50 [2] [µM] | IC50 [3] [µM]
CC[C@H]1OC(=O)[C@H](C)[C@@H](O[C@H]2C[C@@](C)(OC)[C@@H](O)[C@H](C)O2)[C@H](C)[C@@H](O[C@@H]2O[C@H](C)C[C@H](N(C)CC(=O)N(C)[C@H]3C[C@@H](C)O[C@@H](O[C@@H]4[C@@H](C)[C@H](O)[C@@H](C)C(=O)O[C@H](CC)[C@@](C)(O)[C@H](O)[C@@H](C)/C(=N\OCOCCOC)[C@H](C)C[C@@]4(C)O)[C@@H]3O)[C@H]2O)[C@](C)(OC)C[C@@H](C)C(=O)[C@H](C)[C@@H](O)[C@]1(C)O | > 100 | > 100 | > 100
CC[C@H]1OC(=O)[C@H](C)[C@@H](O[C@H]2C[C@@](C)(OC)[C@@H](O)[C@H](C)O2)[C@H](C)[C@@H](O[C@@H]2O[C@H](C)C[C@H](N(C)CCN(C)[C@H]3C[C@@H](C)O[C@@H](O[C@@H]4[C@@H](C)[C@H](O[C@H]5C[C@@](C)(OC)[C@@H](O)[C@H](C)O5)[C@@H](C)C(=O)O[C@H](CC)[C@@](C)(O)[C@H](O)[C@@H](C)C(=O)[C@H](C)C[C@@]4(C)OC)[C@@H]3O)[C@H]2O)[C@](C)(O)C[C@@H](C)[C@H](O)[C@H](C)[C@@H](O)[C@]1(C)O | 39.8 | 28.5 | 20.4
CC[C@H]1OC(=O)[C@H](C)[C@@H](O[C@H]2C[C@@](C)(OC)[C@@H](O)[C@H](C)O2)[C@H](C)[C@@H](O[C@@H]2O[C@H](C)C[C@H](N(C)CC(=O)N(C)[C@H]3C[C@@H](C)O[C@@H](O[C@@H]4[C@@H](C)[C@H](O[C@H]5C[C@@](C)(OC)[C@@H](O)[C@H](C)O5)[C@@H](C)C(=O)O[C@H](CC)[C@@](C)(O)[C@H](O)[C@@H](C)C(=O)[C@H](C)C[C@@]4(C)O)[C@@H]3O)[C@H]2O)[C@](C)(O)C[C@@H](C)C(=O)[C@H](C)[C@@H](O)[C@]1(C)O | 26.5 | > 100 | > 100
CC[C@H]1OC(=O)[C@H](C)[C@@H](O[C@H]2C[C@@](C)(OC)[C@@H](O)[C@H](C)O2)[C@H](C)[C@@H](O[C@@H]2O[C@H](C)C[C@H](N(C)CCN(C)[C@H]3C[C@@H](C)O[C@@H](O[C@@H]4[C@@H](C)[C@H](O[C@H]5C[C@@](C)(OC)[C@@H](O)[C@H](C)O5)[C@@H](C)C(=O)O[C@H](CC)[C@@](C)(O)[C@H](O)[C@@H](C)/C(=N\OCOCCOC)[C@H](C)C[C@@]4(C)O)[C@@H]3O)[C@H]2O)[C@](C)(O)C[C@@H](C)[C@H](O)[C@H](C)[C@@H](O)[C@]1(C)O | 45.2 | 37.8 | 21.9
CC[C@H]1OC(=O)[C@H](C)[C@@H](O[C@H]2C[C@@](C)(OC)[C@@H](O)[C@H](C)O2)[C@H](C)[C@@H](O[C@@H]2O[C@H](C)C[C@H](N(C)CCN(C)[C@H]3C[C@@H](C)O[C@@H](O[C@@H]4[C@@H](C)[C@H](O[C@H]5C[C@@](C)(OC)[C@@H](O)[C@H](C)O5)[C@@H](C)C(=O)O[C@H](CC)[C@@](C)(O)[C@H](O)[C@@H](C)C(=O)[C@H](C)C[C@@]4(C)O)[C@@H]3O)[C@H]2O)[C@](C)(O)C[C@@H](C)C(=O)[C@H](C)[C@@H](O)[C@]1(C)O | 18.3 | 37.3 | > 100
CC[C@H]1OC(=O)[C@H](C)[C@@H](O)[C@H](C)[C@@H](O[C@@H]2O[C@H](C)C[C@H](N(C)CCN(C)[C@H]3C[C@@H](C)O[C@@H](O[C@@H]4[C@@H](C)[C@H](O)[C@@H](C)C(=O)O[C@H](CC)[C@@](C)(O)[C@H](O)[C@@H](C)C(=O)[C@H](C)C[C@@]4(C)OC)[C@@H]3O)[C@H]2O)[C@](C)(OC)C[C@@H](C)C(=O)[C@H](C)[C@@H](O)[C@]1(C)O | > 100 | > 100 | > 100
CC[C@H]1OC(=O)[C@H](C)[C@@H](O[C@H]2C[C@@](C)(OC)[C@@H](O)[C@H](C)O2)[C@H](C)[C@@H](O[C@@H]2O[C@H](C)C[C@H](N(C)CCN(C)[C@H]3C[C@@H](C)O[C@@H](O[C@@H]4[C@@H](C)[C@H](O[C@H]5C[C@@](C)(OC)[C@@H](O)[C@H](C)O5)[C@@H](C)C(=O)O[C@H](CC)[C@@](C)(O)[C@H](O)[C@@H](C)/C(=N\OCOCCOC)[C@H](C)C[C@@]4(C)O)[C@@H]3O)[C@H]2O)[C@](C)(O)C[C@@H](C)/C(=N/OCOCCOC)[C@H](C)[C@@H](O)[C@]1(C)O | > 100 | 5.5 | 3.5
CC[C@H]1OC(=O)[C@H](C)[C@@H](O)[C@H](C)[C@@H](O[C@@H]2O[C@H](C)C[C@H](N(C)CCN(C)[C@H]3C[C@@H](C)O[C@@H](O[C@@H]4[C@@H](C)[C@H](O)[C@@H](C)C(=O)O[C@H](CC)[C@@](C)(O)[C@H](O)[C@@H](C)/C(=N\OCOCCOC)[C@H](C)C[C@@]4(C)O)[C@@H]3O)[C@H]2O)[C@](C)(O)C[C@@H](C)/C(=N/OCOCCOC)[C@H](C)[C@@H](O)[C@]1(C)O | > 100 | > 100 | > 100
CC[C@H]1OC(=O)[C@H](C)[C@@H](O)[C@H](C)[C@@H](O[C@@H]2O[C@H](C)C[C@H](N(C)CCN(C)[C@H]3C[C@@H](C)O[C@@H](O[C@@H]4[C@@H](C)[C@H](O)[C@@H](C)C(=O)O[C@H](CC)[C@@](C)(O)[C@H](O)[C@@H](C)[C@@H](O)[C@H](C)C[C@@]4(C)O)[C@@H]3O)[C@H]2O)[C@](C)(O)C[C@@H](C)[C@H](O)[C@H](C)[C@@H](O)[C@]1(C)O | > 100 | > 100 | > 100
CC[C@H]1OC(=O)[C@H](C)[C@@H](O[C@H]2C[C@@](C)(OC)[C@@H](O)[C@H](C)O2)[C@H](C)[C@@H](O[C@@H]2O[C@H](C)C[C@H](N(C)CCN(C)[C@H]3C[C@@H](C)O[C@@H](O[C@@H]4[C@@H](C)[C@H](O[C@H]5C[C@@](C)(OC)[C@@H](O)[C@H](C)O5)[C@@H](C)C(=O)O[C@H](CC)[C@@](C)(O)[C@H](O)[C@@H](C)/C(=N\OCc5cc(OC)c(OC)c(OC)c5)[C@H](C)C[C@@]4(C)O)[C@@H]3O)[C@H]2O)[C@](C)(OC)C[C@@H](C)C(=O)[C@H](C)[C@@H](O)[C@]1(C)O | 17.4 | 30.2 | 41.5
CC[C@H]1OC(=O)[C@H](C)[C@@H](O[C@H]2C[C@@](C)(OC)[C@@H](O)[C@H](C)O2)[C@H](C)[C@@H](O[C@@H]2O[C@H](C)C[C@H](N(C)CCN(C)[C@H]3C[C@@H](C)O[C@@H](O[C@@H]4[C@@H](C)[C@H](O[C@H]5C[C@@](C)(OC)[C@@H](O)[C@H](C)O5)[C@@H](C)C(=O)O[C@H](CC)[C@@](C)(O)[C@H](O)[C@@H](C)/C(=N\OCc5ccccc5)[C@H](C)C[C@@]4(C)O)[C@@H]3O)[C@H]2O)[C@](C)(O)C[C@@H](C)/C(=N/OCc2ccccc2)[C@H](C)[C@@H](O)[C@]1(C)O | > 100 | > 100 | > 100
CC[C@H]1OC(=O)[C@H](C)[C@@H](O[C@H]2C[C@@](C)(OC)[C@@H](O)[C@H](C)O2)[C@H](C)[C@@H](O[C@@H]2O[C@H](C)C[C@H](N(C)CCN(C)[C@H]3C[C@@H](C)O[C@@H](O[C@@H]4[C@@H](C)[C@H](O[C@H]5C[C@@](C)(OC)[C@@H](O)[C@H](C)O5)[C@@H](C)C(=O)O[C@H](CC)[C@@](C)(O)[C@H](O)[C@@H](C)/C(=N\OCc5cc(OC)c(OC)c(OC)c5)[C@H](C)C[C@@]4(C)O)[C@@H]3O)[C@H]2O)[C@](C)(O)C[C@@H](C)/C(=N/OCc2cc(OC)c(OC)c(OC)c2)[C@H](C)[C@@H](O)[C@]1(C)O | 28.4 | 8.3 | 3.9
CC[C@H]1OC(=O)[C@H](C)[C@@H](O[C@H]2C[C@@](C)(OC)[C@@H](O)[C@H](C)O2)[C@H](C)[C@@H](O[C@@H]2O[C@H](C)C[C@H](N(C)C(=O)CN(C)[C@H]3C[C@@H](C)O[C@@H](O[C@@H]4[C@@H](C)[C@H](O[C@H]5C[C@@](C)(OC)[C@@H](O)[C@H](C)O5)[C@@H](C)C(=O)O[C@H](CC)[C@@](C)(O)[C@H](O)[C@@H](C)C(=O)[C@H](C)C[C@@]4(C)O)[C@@H]3O)[C@H]2O)[C@](C)(OC)C[C@@H](C)C(=O)[C@H](C)[C@@H](O)[C@]1(C)O | 65.9 | 27.6 | > 100
CC[C@H]1OC(=O)[C@H](C)[C@@H](O[C@H]2C[C@@](C)(OC)[C@@H](O)[C@H](C)O2)[C@H](C)[C@@H](O[C@@H]2O[C@H](C)C[C@H](N(C)CCN(C)[C@H]3C[C@@H](C)O[C@@H](O[C@@H]4[C@@H](C)[C@H](O[C@H]5C[C@@](C)(OC)[C@@H](O)[C@H](C)O5)[C@@H](C)C(=O)O[C@H](CC)[C@@](C)(O)[C@H](O)[C@@H](C)/C(=N\OCOCCOC)[C@H](C)C[C@@]4(C)O)[C@@H]3O)[C@H]2O)[C@](C)(OC)C[C@@H](C)/C(=N/O)[C@H](C)[C@@H](O)[C@]1(C)O | 22.1 | 14.7 | 6.3
CC[C@H]1OC(=O)[C@H](C)[C@@H](O[C@H]2C[C@@](C)(OC)[C@@H](O)[C@H](C)O2)[C@H](C)[C@@H](O[C@@H]2O[C@H](C)C[C@H](N(C)CC(=O)N(C)[C@H]3C[C@@H](C)O[C@@H](O[C@@H]4[C@@H](C)[C@H](O[C@H]5C[C@@](C)(OC)[C@@H](O)[C@H](C)O5)[C@@H](C)C(=O)O[C@H](CC)[C@@](C)(O)[C@H](O)[C@@H](C)C(=O)[C@H](C)C[C@@]4(C)OC)[C@@H]3O)[C@H]2O)[C@](C)(OC)C[C@@H](C)C(=O)[C@H](C)[C@@H](O)[C@]1(C)O | 16.2 | > 100 | 30.9
